In patent publication US6660690B2, “Seed treatment with combinations of insecticides” (priority 2000, dated 2003):

Key:
black cutworm larvae = assay: Black cutworm feeding damage on corn grown from treated seed or in treated soil (Reference Example 1); assay type: in vivo; conditions: for Plant Defol. 3 DAI / Plant Defol. 7 DAI / Plant Defol. 10 DAI: rating 1=no damage, 10=complete defoliation
Description: (§1) A lambda-cyhalothrin seed treatment formulation was prepared by diluting the WARRIOR® T insecticide (Zeneca Ag Products, Wilmington, Del.), which contains 11.4% lambda-cyhalothrin as the active ingredient, into water as a carrier. This formulation was applied for one minute at room temperature to twenty-five grams of Pioneer corn seed (Cultivar PN3394) in a rotostatic seed treater at a rate of 125 g, 250 g or 500 g active ingredient (Al) to 100 kg seed. The treated seeds were allowed to sit uncapped for four to twenty-four hours before planting.
(§2) Treated and untreated seeds (Pioneer hybrid PN3394) were planted in a soil mix consisting of Dupo silt loam, 30% Perlite, 20% coarse sand (WB-10 grade) in six groups of tubs (20 in. L×15 in. W×8 in. D). Twelve seeds were planted per tub and three tubs were planted for each treatment regimen. Soil applications of FORCE® 3GR, which contains 3% tefluthrin granule as the active ingredient, were used for two sets of tubs containing untreated seeds. The FORCE 3GR was applied either in-furrow or incorporated into a 5 inch band on the soil surface at the time of planting. The tubs were overhead irrigated until the plants were infested with black cutworm larvae.
The rate of application for the FORCE 3GR was reported in units of grams of the active ingredient per hectare (g/ha), while the rate of application of the WARRIOR T to the seeds was reported in units of grams of the active ingredient per 100 kilograms of the seeds (g/100 kg). Although the conversion of one of these units to the other will vary somewhat according to the type of seed that is being used, the size and weight of the seed, and the density of planting that is used—among other things—an approximate conversion for corn seed can be carried out as follows. Assuming a seed application rate of lambda cyhalothrin of, for example, 125 g/100 kg of seed and a planting density of 15 lbs seed/ac, about 14.7 acres can be planted with 100 kg of the seed. This is an effective application rate of about 8.5 g of lambda cyhalthrin per acre. At 2.47 ac/ha, the seed treatment level of 125 g/100 kg is approximately equivalent to a surface banding treatment at about 21 g/ha.
The corn plants were infested at 12 DAP, which corresponds to late growth stage V1 by placing two black cutworm larvae at ¾ instar on the soil surface near the base of the plant. Plants were rated 3, 7 and 10 days after infestation (DAI) for the number of cut plants, as well as damage from leaf feeding. The percent stand reduction due to plant cutting was calculated by dividing the number of cut plants into the number of plants present at infestation. The foliar feeding injury was evaluated using a rating scale of 1=no damage and 10=complete defoliation.

corn plants = assay: Vigor rating of corn plants at 12 DAP before infestation (indication of phytotoxicity); assay type: in vivo; conditions: rating 1=extremely low vigor, 10=highest
Description: as §1, §2
At twelve days after planting (DAP) but before infestation, the overall health of each plant was rated by looking at emergence, height and appearance. This vigor rating gives an indication of any phytotoxicity from the seed or soil treatment. A rating of 1 indicates extremely low vigor while 10 is the highest vigor rating.

Structure (SMILES): Cc1c(F)c(F)c(COC(=O)[C@@H]2[C@H](/C=C(\Cl)C(F)(F)F)C2(C)C)c(F)c1F (racemic) [Tefluthrin, (2,3,5,6-tetrafluoro-4-methylphenyl)-methyl-(1 alpha, 3 alpha)-(Z)-(±)-3-(2-chloro-3,3,3-trifluoro-1-propenyl)-2,2-dimethylcyclopropanecarboxylate]
- % Stand Reduct'n 3 DAI (black cutworm larvae; soil granule banded 30 g/ha): 0.0%
- Plant Defol. 3 DAI (black cutworm larvae; soil granule banded 30 g/ha): 1.7
- % Stand Reduct'n 7 DAI (black cutworm larvae; soil granule banded 30 g/ha): 0.0%
- Plant Defol. 7 DAI (black cutworm larvae; soil granule banded 30 g/ha): 1.7
- % Stand Reduct'n 10 DAI (black cutworm larvae; soil granule banded 30 g/ha): 0.0%
- Plant Defol. 10 DAI (black cutworm larvae; soil granule banded 30 g/ha): 0.3
- % Stand Reduct'n 3 DAI (black cutworm larvae; soil granule in-furrow 30 g/ha): 33.9%
- Plant Defol. 3 DAI (black cutworm larvae; soil granule in-furrow 30 g/ha): 5.0
- % Stand Reduct'n 7 DAI (black cutworm larvae; soil granule in-furrow 30 g/ha): 48.0%
- Plant Defol. 7 DAI (black cutworm larvae; soil granule in-furrow 30 g/ha): 6.0
- % Stand Reduct'n 10 DAI (black cutworm larvae; soil granule in-furrow 30 g/ha): 48.0%
- Plant Defol. 10 DAI (black cutworm larvae; soil granule in-furrow 30 g/ha): 5.3
- Vigor at 12 DAP (corn plants; soil granule (FORCE 3GR) banded 30 g/ha): 8.7
- Vigor at 12 DAP (corn plants; soil granule (FORCE 3GR) in-furrow 30 g/ha): 9.0

Structure (SMILES): CC1(C)[C@H](C(=O)O[C@H](C#N)c2cccc(Oc3ccccc3)c2)[C@@H]1/C=C(\Cl)C(F)(F)F [λ-cyhalothrin, [1 alpha (s), 3 alpha(z)]-cyano(3-phenoxyphenyl) methyl-3-(2-chloro-3,3,3-trifluoro-1-propenyl)-2,2-dimethylcyclopropane carboxylate]
- % Stand Reduct'n 3 DAI (black cutworm larvae; seed treatment 125 g/100 kg): 13.9%
- Plant Defol. 3 DAI (black cutworm larvae; seed treatment 125 g/100 kg): 4.3
- % Stand Reduct'n 7 DAI (black cutworm larvae; seed treatment 125 g/100 kg): 16.7%
- Plant Defol. 7 DAI (black cutworm larvae; seed treatment 125 g/100 kg): 5.0
- % Stand Reduct'n 10 DAI (black cutworm larvae; seed treatment 125 g/100 kg): 19.4%
- Plant Defol. 10 DAI (black cutworm larvae; seed treatment 125 g/100 kg): 3.3
- % Stand Reduct'n 3 DAI (black cutworm larvae; seed treatment 250 g/100 kg): 3.0%
- Plant Defol. 3 DAI (black cutworm larvae; seed treatment 250 g/100 kg): 3.7
- % Stand Reduct'n 7 DAI (black cutworm larvae; seed treatment 250 g/100 kg): 3.0%
- % Stand Reduct'n 7 DAI (black cutworm larvae; seed treatment 250 g/100 kg, listed as lambda-cyhalothrin): 3%
- Plant Defol. 7 DAI (black cutworm larvae; seed treatment 250 g/100 kg): 2.7
- % Stand Reduct'n 10 DAI (black cutworm larvae; seed treatment 250 g/100 kg): 3.0%
- Plant Defol. 10 DAI (black cutworm larvae; seed treatment 250 g/100 kg): 1.7
- % Stand Reduct'n 3 DAI (black cutworm larvae; seed treatment 500 g/100 kg): 0.0%
- Plant Defol. 3 DAI (black cutworm larvae; seed treatment 500 g/100 kg): 2.0
- % Stand Reduct'n 7 DAI (black cutworm larvae; seed treatment 500 g/100 kg): 0.0%
- % Stand Reduct'n 7 DAI (black cutworm larvae; seed treatment 500 g/100 kg, listed as lambda-cyhalothrin): 0%
- Plant Defol. 7 DAI (black cutworm larvae; seed treatment 500 g/100 kg): 2.3
- % Stand Reduct'n 10 DAI (black cutworm larvae; seed treatment 500 g/100 kg): 0.0%
- Plant Defol. 10 DAI (black cutworm larvae; seed treatment 500 g/100 kg): 1.0
- Vigor at 12 DAP (corn plants; seed treatment 125 g/100 kg): 9.0
- Vigor at 12 DAP (corn plants; seed treatment 250 g/100 kg): 8.3
- Vigor at 12 DAP (corn plants; seed treatment 500 g/100 kg): 8.3
